# Source: US20160287534A1, “METHODS FOR REVERSING FIBROSIS” (The University of Connecticut, priority 2015, published 2016)
# Legend:
# Type in all cases: cell-based
# [1] = tested on: mouse primary HSCs; test: ROS measurement in mouse primary HSCs; details: ASTX treatment for 6 d during activation (FIG. 8A)
# Description: Mouse primary qHSCs were seeded on an uncoated black 24-well μ-Plate (Ibidi, Verona, Wis.). At day 6 of activation, cellular ROS levels were measured using dichlorofluorescin (Sigma-Aldrich, St. Louis, Mo.) as described (Id.). The cells were then fixed with 4% formaldehyde for 10 min, and incubated with 0.1% CellTag 700 stain (Li—COR, Lincoln, Nebr.), a fluorescent stain, for cell number normalization, for 1 h. Fluorescent signals were obtained by an Odyssey® CLx Infrared Imaging System (Li—COR) and a Li—COR Image Studio software. Data were expressed as relative fluorescent intensity divided by total cell stain signal.
# [2] = tested on: Smad3; test: Western blot of Smad3 phosphorylation and nuclear translocation in LX-2 cells
# Description: Whole cell lysates were prepared to conduct Western blot as we previously described (Id.) using antibodies against α-SMA (Sigma, St. Louis, Mo.), Smad3 (Millipore, Billerica, Mass.), and phospho-Smad3 (Cell Signaling, Danvers, Mass.). β-Tubulin (Santa Cruz Biotechnology, Santa Cruz, Calif.) or β-actin (Sigma, St. Louis, Mo.) was used as a loading control. For Western blot of nuclear and cytoplasmic cell fractions, the fractions were prepared using a nuclear extraction kit (Cayman, Ann Arbor, Mich.) as previously described (see Ku et al. Biochim. Biophys. Acta Gen. Subj. 2013, vol. 1830, pp. 2981-2988). Glyceraldehyde 3-phosphate dehydrogenase (GAPDH) (Santa Cruz Biotechnology, Santa Cruz, Calif.) and lamin B (Santa Cruz Biotechnology) were used as a loading control for cytoplasmic and nuclear fractions, respectively. Blots were developed using Westpico horseradish peroxidase chemiluminescence (Pierce, Rockford, Ill.) and images were analyzed using a Chemidoc XRS+system (Bio-Rad) and Image Lab software (Bio-Rad).
# [3] = tested on: human primary HSCs; test: qRT-PCR of fibrogenic genes in human primary HSCs
# Description: (§1) Mouse primary HSCs were isolated from C57BL/6J, nuclear erythroid 2-related factor 2 (NRF2) knockout (Nrf2−/−), and wild-type mice using a pronase/collagenase digestion method as described herein Example 1. The cells were then cultured on untreated petri dishes (BD Falcon, Franklin Lakes, N.J.), and maintained in a low-glucose DMEM medium supplemented with 10% FBS, 4 mM L-glutamine, and P/S (100 U/100 μg per mL). Human primary HSCs (Zen-Bio, Research Triangle Park, N.C.) were maintained in a low-glucose DMEM medium containing 2% FBS, 4 mM L-glutamine, 1× nonessential amino acids, 1× vitamins, and P/S (100 U/100 μg per mL). The cells were seeded on a collagen-coated plate for experiments (Sarstedt, Newton, N.C.). LX-2 cells, kindly provided by Dr. Scott Friedman at the Icahn School of Medicine at Mount Sinai (New York, N.Y.), were maintained in a low-glucose DMEM supplemented with 2% FBS, 4 mM L-glutamine, and P/S (100 U/100 μg per mL). All cells were cultured in a 37° C. humidified cell culture chamber with 5% CO2. Cell culture supplies were purchased from HyClone unless stated otherwise (Thermo Scientific, Logan, Utah).
# ASTX, provided by Fuji Chemical Industry Co., Ltd. (Toyama, Japan), was prepared in DMSO as described herein in Example 1. […]
# [4] = tested on: mouse primary HSCs; test: Activation of mouse primary qHSCs (Example 2): morphology, qRT-PCR, Western blot
# Description: as §1
# ASTX, provided by Fuji Chemical Industry Co., Ltd. (Toyama, Japan), was prepared in DMSO as described herein in Example 1. After plated on an uncoated dish, mouse qHSCs were incubated with 25 μM ASTX during activation. aHSCs, which were prepared by culturing qHSCs on an uncoated dish for 6 d, were incubated with 25 μM ASTX for 2 or 4 more days. Also, cells were incubated with 3 μM tert-butyl hydrogen peroxide (tBHP, Thermo Scientific) for 12 h with or without 25 μM ASTX. Medium containing ASTX was replenished daily and DMSO vehicle control was always run in parallel. Human primary HSC were treated with 25 μM ASTX for 24 h, after which they were activated by 3 ng/mL of TGFβ1 (Peprotech, Rocky Hill, N.J.) for 24 h.
# Total RNA extraction, cDNA synthesis, and qRT-PCR were conducted using a Bio-Rad CFX96 Real-Time system (Bio-Rad, Hercules, Calif.) as previously described (Id.). Primer sequences will be available upon request.
# Whole cell lysates and human tissue protein extracts were prepared and Western blot analysis were performed as described (Id.) using antibodies against α-SMA (Sigma, St. Louis, Mo.), HDAC3 (Santa Cruz Biotechnology, Santa Cruz, Calif.), HDAC4 (Santa Cruz Biotechnology), HDAC9 (Abcam, Cambridge, Mass.; Novus Biologicals, Littleton, Colo.), Col1A1 (Sigma). β-tubulin (Santa Cruz) or glyceraldehyde 3-phosphate dehydrogenase (GAPDH) (Santa Cruz) was used as a loading control.
# [5] = ASTX added at day 4 for 2 d during HSC activation (FIG. 8B)
smiles,measurement,setting,value
"CC1=C(/C=C/C(C)=C/C=C/C(C)=C/C=C/C=C(C)/C=C/C=C(C)/C=C/C2=C(C)C(=O)C(O)CC2(C)C)C(C)(C)CC(O)C1=O (centres unmarked) [ASTX, astaxanthin]",cellular ROS levels,[1],significantly lowered
same,TGFβ1-induced phosphorylation of Smad3,[2]; 25 μM ASTX (FIG. 5A),significantly inhibited
same,nuclear translocation of Smad3,[2]; 25 μM ASTX (FIG. 5B),reduced
same,TGFβ1-mediated induction of α-SMA and Col1A1 mRNA,"[3]; 25 μM ASTX 24 h, then TGFβ1 3 ng/ml 24 h (FIGS. 11A, 11B)",attenuated
same,basal levels of α-SMA and Col1A1 mRNA,"[3]; 25 μM ASTX (FIGS. 11A, 11B)",attenuated
same,NOX2 mRNA,[4]; [5],decreased
same,NOX4 mRNA,[4]; [5],significantly increased
same,protein levels of α-SMA,[4]; ASTX for 2 days during activation (FIG. 7C),noticeably decreased
same,cytoplasmic lipid droplets,"[4]; day 6, cells treated with ASTX for 2-6 days (FIG. 7A)",more lipid droplets than controls
same,cell morphology vs control,"[4]; days 2 and 4 of activation, 25 μM ASTX (FIG. 7A)",no noticeable differences
same,α-SMA and Col1A1 mRNA,"[4]; during activation of qHSCs, 25 μM ASTX (FIG. 7B)",significantly decreased
